Data reported in patent publication US5194437A, “1,4-disubstituted piperazines” (Adir et Compagnie, priority 1990, dated 1993).
Where two headings read alike, the source gives them in different places.

Legend:
5-HT1A receptors [1] = target: T1, 5-HT1A receptors (Rattus norvegicus, UniProt P19327); assay: Spontaneous tail flick test (STF), agonist and antagonist activity; type: in vivo, male Wistar rats; parameters: from tissue; host or cells: whole animal, male Wistar rat (in vivo); conditions: for Spontaneous tail flicks M.E.D.: agonist: induction of STF, s.c., minimum effective dose; for ED50: rat, sc, 1 h, antagonist: inhibition of STF induced by 8-OH-DPAT 0.63 mg/kg s.c., compound s.c. 60 min before test, read-out: Spontaneous tail flicks ID50 (95% C.L.)
T1 sequence (P19327 1-422): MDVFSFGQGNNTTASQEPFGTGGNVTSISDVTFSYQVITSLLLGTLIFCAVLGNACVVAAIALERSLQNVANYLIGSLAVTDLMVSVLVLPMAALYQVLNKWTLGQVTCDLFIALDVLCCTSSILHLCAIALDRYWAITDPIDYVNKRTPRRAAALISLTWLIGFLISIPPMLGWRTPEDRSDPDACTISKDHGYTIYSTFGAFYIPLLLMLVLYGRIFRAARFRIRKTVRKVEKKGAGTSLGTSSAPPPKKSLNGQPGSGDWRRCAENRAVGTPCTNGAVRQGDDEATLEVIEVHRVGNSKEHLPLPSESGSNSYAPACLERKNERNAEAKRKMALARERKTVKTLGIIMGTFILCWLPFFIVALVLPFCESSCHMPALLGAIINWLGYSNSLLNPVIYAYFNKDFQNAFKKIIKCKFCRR
Experimental: (§1) The tests were carried out on male Wistar rats weighing from 200 to 220 g which had free access to food and drinking water, in standard cages.
(§2) The animals are housed individually for the hypothermia, corticosterone secretion and flat body posture tests, and in groups of three for the tail flick test.
(§3) The laboratory temperature is kept at 21°±1° C., with 60 ±5% humidity. The rats are subjected to a light/dark cycle of 12 hours/12 hours (the light cycle commencing at 7.30 a.m.).
(§4) a/ General procedure for tests of agonist and antagonist activities on 5-HT1A receptors.
(§5) The test compounds were administered subcutaneously (s.c.) 60 minutes before the start of the test, that is to say 30 minutes before the vehicle (agonist responses) or 8-OH-DPAT (antagonist responses).
(§6) In all the tests, the solvent is used in parallel as the control. The animals were allowed to rest in their cages during the time between the injections and evaluation.
(§7) For the agonist studies, the solvent was administered at a dose of 1 ml/kg s.c. 30 minutes before the start of the test. For the antagonist studies, doses of 8-OH-DPAT inducing sub-maximal responses were chosen, i.e. doses of 0.63, 0.16, 0.16 and 0.16 mg/kg s.c. for the tail flick test, the flat body posture test, the corticosterone secretion test and the hypothermia test, respectively.
Tail flicks were determined in animals restrained in horizontal, opaque plastics cylinders, the animals' tails hanging freely over the edge of the laboratory bench. After a 5-minute adaptation period, the number of movements made in 5 minutes is recorded. One STF is defined as the raising of the tail to a level higher than the level of the body axis [Millan M. J. et al., J. Pharmacol. Exp. Ther., 256, 973-982 (1990)].
(§8) In general, after variance analysis, the results are subjected to Dunnett's test. Results are regarded as significant if p<0.05.
(§9) The doses of the test compounds are all expressed in terms of the base. Unless otherwise mentioned, all the compounds were dissolved in sterile water (to which a few drops of lactic acid are added, if necessary) and administered at a volume of 1 ml/kg s.c..

5-HT1A receptors [2] = target: T1, 5-HT1A receptors; assay: Flat body posture (FBP), agonist response and antagonism of 8-OH-DPAT; type: in vivo, male Wistar rats; parameters: from tissue; host or cells: whole animal, male Wistar rat (in vivo); conditions: sc
Experimental: as §1, §2, §3, §4, §5, §6, §7
(§10) The same animals were employed for the evaluation of the effect of the test compounds on the FBP and for the determination of the plasma levels of CS. All the tests were carried out in the morning between 10.30 and 12.30, i.e. when the cicardian levels of CS are at their lowest.
25 minutes after the treatment (i.e. 5 minutes before decapitation), the animals are observed in their cages and the presence or absence of FBP is noted.
(§11) The presence of FBP is defined by a characteristic posture of the animal. The animal is then in a position of ventral decubitus with the hind limbs clearly in extension. 5 minutes after observation of FBP, the animals are decapitated and the trunk blood is collected in chilled tubes containing 50 μl of a 10% EDTA solution. After centrifugation at 4000 rpm, the plasma is removed and stored at -30° C. until assay.
as §8
For the dose-response for induction and inhibition of FBP, the effective doses 50 (ED50) (doses at which 50% of the animals show a response) were calculated by the method of Litchfield and Wilcoxon.
as §9

5-HT1A receptors [3] = target: T1, 5-HT1A receptors; assay: Corticosterone secretion (CS), plasma, agonist and antagonist activity; type: in vivo, male Wistar rats; parameters: from tissue; host or cells: whole animal, male Wistar rat (in vivo); conditions: for Corticosterone secretion M.E.D.: agonist: induction of CS, s.c., minimum effective dose; for ED50: rat, sc, 1 h, antagonist: inhibition of CS induced by 8-OH-DPAT 0.16 mg/kg s.c., compound s.c. 60 min before test, read-out: Corticosterone secretion ID50 (95% C.L.)
Experimental: as §1, §2, §3, §4, §5, §6, §7, §10, §11
CS was determined using a radio-competitive assay for a CS-binding protein in plasma: transcortin. The latter is obtained from monkey serum. Separation of the CS-transcortin complexes from free CS was effected by means of a solution of dextran and active charcoal. The detection limit was 50 pg/tube. Intra- and inter-assay variations were 5 and 15%, respectively [cf. Rivet J. M. et al., Eur. J. Pharmacol., 183, 634-635 (1990)].
Since the base levels of CS in plasma are never zero, the following formula was used to calculate the percentage inhibition of plasmatic CS induced by 8-OH-DPAT: [formula]
as §8, §9

5-HT1A receptors [4] = target: T1, 5-HT1A receptors; assay: Body temperature (hypothermia), agonist and antagonist activity; type: in vivo, male Wistar rats; parameters: from tissue; host or cells: whole animal, male Wistar rat (in vivo); conditions: for Hypothermia M.E.D.: agonist: induction of hypothermia, s.c., minimum effective dose; for ED50: rat, sc, 1 h, antagonist: inhibition of hypothermia induced by 8-OH-DPAT 0.16 mg/kg s.c., compound s.c. 60 min before test, read-out: Hypothermia ID50 (95% C.L.)
Experimental: as §1, §2, §3, §4, §5, §6, §7
The rats are immobilised and a lubricated digital thermometer (Thermistoprobe from Testotherm, Basle, Switzerland) is inserted into the rectum to a depth of 5 cm. 30 seconds after insertion, the temperature is read off a digital scale. The percentage inhibition is calculated with the aid of the formula mentioned above.
as §8, §9

5-HT1A receptors [5] = target: T1, 5-HT1A receptors; assay: In vitro binding test, 5-HT1A receptors, [3]H-8-OH-DPAT, rat hippocampus membranes; parameters: Hippocampus from the brains of decapitated rats; from tissue; host or cells: rat hippocampus membranes (male Wistar); species or system rat (male Wistar)
Experimental: Hippocampus from the brains of decapitated rats was immediately frozen on dry ice and then stored at -80° C. until preparation of membranes. The tissue was homogenised at 4° C. in the appropriate buffer using a Polytron (Brinkman Instruments - Lucerne - Switzerland) and centrifuged at 20,000 rpm.
Incubation was carried out at 25° C. for 30 minutes. Non-specific binding was defined by 10 μM of 5-HT. The tests were terminated by rapid filtration by means of a Brandel harvester over glass-fibre filters pretreated with 0.1% polyethyleneimine.
The inhibitory concentration 50 values (IC50) were determined according to method 8 of Tallarida R. J. and Murray R. B., Manual of pharmacological calculations with computer programs, Springer Verlag, N.Y. (1987).
The pKi was calculated according to the formula [formula] where [L] is the concentration of the hot ligand ([3]H-8-OH-DPAT, 0.4 nM) and Kd is the apparent dissociation constant determined from saturation experiments.
The test substances were dissolved in the incubation buffer.

[6] = 1 h, read-out: Flat body posture ED50 (95% C.L.), antagonism of 8-OH-DPAT, inhibition of FBP, 8-OH-DPAT 0.16 mg/kg s.c., compound s.c. 60 min before test
[7] = induction of FBP, s.c., dose at which 50% of the animals show a response, read-out: Flat body posture ED50 (95% C.L.), agonist response
[8] = hot ligand [3]H-8-OH-DPAT 0.4 nM, rat hippocampus membranes, 25° C., 30 minutes, read-out: Affinity (pKi) (converted)

SMILES | Spontaneous tail flicks M.E.D. (5-HT1A receptors [1]) [mg/kg] | ED50 (5-HT1A receptors [1]) [mg/kg] | ED50 (5-HT1A receptors [2]; [6]) [mg/kg] | ED50 (5-HT1A receptors [2]; [7]) [mg/kg] | Corticosterone secretion M.E.D. (5-HT1A receptors [3]) [mg/kg] | ED50 (5-HT1A receptors [3]) [mg/kg] | Hypothermia M.E.D. (5-HT1A receptors [4]) [mg/kg] | ED50 (5-HT1A receptors [4]) [mg/kg] | Ki (5-HT1A receptors [5]) [nM] | Ki (5-HT1A receptors [5]; [8]) [nM]
c1ccc2c(c1)CC2CN1CCN(c2cccc3c2OCCO3)CC1 (racemic) [Example 1, (R,S)-4-(benzodioxan-5-yl)-1-[(benzocyclobutan-1-yl)methyl]-piperazine] | > 10.0 | 0.09 | 0.71 | > 10 | > 2.5 | < 2.5 | 10.0 | 0.5 | 1.82 | 
c1ccc2c(c1)CC2CCN1CCN(c2cccc3c2OCCO3)CC1 (racemic) [Example 2, (R,S)-4-(benzodioxan-5-yl)-1-[2-(benzocyclobutan-1-yl)-ethyl]-piperazine] | > 10.0 | 0.085 | 0.76 | > 20 | 10.0 | 0.66 | 40.0 | 0.65 | 0.617 | 
c1ccc2c(c1)CC2CCN1CCN(c2cccc3c2OCCCO3)CC1 (racemic) [Example 3, (R,S)-4-[benzo(1,5)dioxepin-6-yl]-1-[2-(benzocyclobutan-1-yl)-ethyl]-piperazine] | > 10.0 | 0.32 | 1.55 | > 10 | > 10.0 | 2.15 | > 20.0 | 1.64 |  | 
c1ccc2c(c1)CC2CCCCN1CCN(c2cccc3c2OCCO3)CC1 (racemic) [Example 8, (R,S)-4-(benzodioxan-5-yl)-1-[4-(benzocyclobutan-1-yl)-butyl]-piperazine] |  |  |  |  |  |  |  |  | 1.58 | 
c1ccc2c(c1)CC2CCCN1CCN(c2cccc3c2OCCO3)CC1 (racemic) [Example 13, (R,S)-4-(benzodioxan-5-yl)-1-[3-(benzocyclobutan-1-yl)-propyl]-piperazine] | > 10.0 | 0.13 | 0.57 | > 10 | 10.0 | 1.27 | 10.0 | 0.21 |  | 
c1ccc2c(c1)CCC2CN1CCN(c2cccc3c2OCCO3)CC1 (racemic) [Example 15, (R,S)-4-(benzodioxan-5-yl)-1-[(indan-1-yl)-methyl]-piperazine] |  | 0.085 | ≥ 2.5 | > 2.5 | > 2.5 | > 2.5 | 10.0 | 1.53 | 2 | 
COc1ccc2c(c1)C(CCN1CCN(c3cccc4c3OCCO4)CC1)C2 (racemic) [Example 16, (R,S)-4-(benzodioxan-5-yl)-1-[2-(5-methoxybenzocyclobutan-1-yl)-ethyl]-piperazine] |  |  |  |  |  |  |  |  |  | 1.41
COc1cc2c(cc1OC)C(CCN1CCN(c3cccc4c3OCCO4)CC1)C2 (racemic) [Example 17, (R,S)-4-(benzodioxan-5-yl)-1-[2-(4,5-dimethoxybenzocyclobutan-1-yl)-ethyl]-piperazine] |  |  |  |  |  |  |  |  |  | 3.47
COc1cc2c(cc1OC)C(CCN1CCN(c3cccc4c3OCCO4)CC1)CC2 (racemic) [Example 19, (R,S)-4-(benzodioxan-5-yl)-1-[2-(5,6-dimethoxyindan-1-yl)-ethyl]-piperazine] |  |  |  |  |  |  |  |  |  | 1.48
c1ccc2c(c1)CCC2CCN1CCN(c2cccc3c2OCCO3)CC1 (racemic) [Example 22, (R,S)-4-(benzodioxan-5-yl)-1-[2-(indan-1-yl)-ethyl]-piperazine] | > 10.0 | 0.74 | 1.03 | > 10 | > 10.0 | 1.92 | > 40.0 | 1.19 |  | 
c1ccc2c(c1)CCC2CCCN1CCN(c2cccc3c2OCCO3)CC1 (racemic) [Example 23, (R,S)-4-(benzodioxan-5-yl)-1-[3-(indan-1-yl)-propyl]piperazine] |  | 0.56 | 0.29 | 10 | > 2.5 | < 2.5 | 5.0 | 0.4 |  | 
C1=C(CCN2CCN(c3cccc4c3OCCO4)CC2)c2ccccc2C1 [Example 18, 4-(benzodioxan-5-yl)-1-[2-(ind-1-en-1-yl)-ethyl]-piperazine] |  |  |  |  |  |  |  |  | 0.813 | 
